The text below walks through data of publication PMC12669278, “VDAC1-interacting proteins: binding site mapping and their derived peptides induce apoptosis and multifaceted cellular effects” (Apoptosis, 2025).

The assay addresses purified VDAC1 (Homo sapiens, UniProt P21796). The assay can be described thus: Glass-bound peptide array probed with purified VDAC1 and anti-VDAC1 antibodies. The class given is binding. Details: key: +: low; ++: medium; +++: high. As to conditions: glass-bound peptide array incubated 4 h with purified VDAC1 (64 nM), chemiluminescence; for Spot intensity, detected using anti-VDAC1 internal sequence: antibody against VDAC1 amino acids 150-250; for Spot intensity, detected using anti-N-terminus VDAC1: antibody against VDAC1 N-terminus. The procedure: A customized peptide array was produced by INTAVIS Peptide Services (GmbH & Co. KG, Tübingen, Germany). It comprised 768 peptide sequences derived from 19 VDAC1-interacting proteins that were arrayed on a glass slide. Each peptide was composed of 25 amino acids with an overlap of 15 amino acids with the peptides before and following it.
The interaction of purified VDAC1 with glass-bound peptide arrays was assessed by washing the slide three times, 10 min each, with TBST (150 mM NaCl, 50 mM Tris/HCl, pH 7.4, 0.1% Tween-20), followed by overnight incubation with blocking buffer (TBS, pH 7.8, containing low-fat dry milk, 2.5%, w/v) at 4 °C. Then slides were incubated with purified VDAC1 in protein-interacting buffer (20 mM HEPES, 100 mM KCl, pH,7.4, PBS) for 4 h at room temperature (RT). After washing, with TBST, slides were incubated overnight at 4 °C with anti-VDAC1 antibody against a sequence of 150–250 amino acids or against the VDAC1-N-terminus. Slides were then washed with TBST, followed by the appropriate secondary anti-HRP conjugated antibody for 2 h at RT. They were washed again with TBST and developed using enhanced chemiluminescence EZ-ECL (Biological Industries), according to the manufacturer’s instructions. The signal was captured in the dark using FUSION-FX (Vilber Lourmat) software.

purified VDAC1, sequence (P21796 whole entry, species assumed, the tested form may be a part): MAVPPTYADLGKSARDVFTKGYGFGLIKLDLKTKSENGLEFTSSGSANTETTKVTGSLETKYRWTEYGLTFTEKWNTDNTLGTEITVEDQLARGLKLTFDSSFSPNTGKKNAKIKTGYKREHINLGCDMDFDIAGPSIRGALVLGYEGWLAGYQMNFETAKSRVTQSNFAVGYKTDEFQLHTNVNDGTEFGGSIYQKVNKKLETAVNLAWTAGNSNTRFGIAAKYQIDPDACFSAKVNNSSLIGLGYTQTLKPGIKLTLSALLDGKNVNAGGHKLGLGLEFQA

For the sequence “AAAATTVAWYQVSPLAARLLYPYLA [1H10, array peptide from TSPO]”, the “Spot intensity, detected using anti-VDAC1 internal sequence” value is given as “++”.
As to “AGATSSLTPSRGPVSPSVSFQPLAR [1K9, array peptide from MAVS]”, the “Spot intensity, detected using anti-N-terminus VDAC1” value is given as “+++”.
Turning to “AIYDICRRNLDIERPTYTNLNRLIS [2A11, array peptide from tubulin alpha 1b]”, the “Spot intensity, detected using anti-N-terminus VDAC1” value was “+++” and the “Spot intensity, detected using anti-VDAC1 internal sequence” value was “+”.
Taken in the same sequence, the figures for “AKYDDIKKVVKQASEGPLKGILGYT [2C18, array peptide from GAPDH1]” were “+++” and “++”.
Take “ALSSQHQARIEIESFYEGEDFSETL [2L3, array peptide from BiP1]”: the “Spot intensity, detected using anti-N-terminus VDAC1” value is reported as “++”.
In the case of ASIHGYLGIVELLVSLGADVNAQEP [2F17], the “Spot intensity, detected using anti-N-terminus VDAC1” value is listed as “++” and the “Spot intensity, detected using anti-VDAC1 internal sequence” value was “+”.
For “AVDTDSPREVFFRVAADMFSDGNFN [1B5, array peptide from BAX]”, the “Spot intensity, detected using anti-N-terminus VDAC1” value is listed as “+++”.
As to “AVIGGSAGASPPSTLTPDSRRVARP [2D10, array peptide from Mcl-1]”, the “Spot intensity, detected using anti-N-terminus VDAC1” value is given as “+”.
Regarding “DDEGMGEEPSPFRGRSRSAPPNLWA [1A10, array peptide from BAD]”, the “Spot intensity, detected using anti-N-terminus VDAC1” value is recorded as “++”.
As for “DELYRQSLEIISRYLREQATGAKDT [2D23, array peptide from Mcl-1]”, the “Spot intensity, detected using anti-VDAC1 internal sequence” value is listed as “+”.
In the case of “DQCTGLQGFLVFHSFGGGTGSGFTS [2A2, array peptide from tubulin alpha 1b]”, the “Spot intensity, detected using anti-N-terminus VDAC1” value is given as “+”.
As to “DQGGWGLPLAESLKRLMSLSPGRPP [1B13, array peptide from BAX]”, the “Spot intensity, detected using anti-N-terminus VDAC1” value is recorded as “+++” and the “Spot intensity, detected using anti-VDAC1 internal sequence” value was “+”.
In the case of “EDFSETLTRAKFEELNMDLFRSTMK [2L5, array peptide from BiP1]”, the “Spot intensity, detected using anti-N-terminus VDAC1” value is reported as “+”.
Take “ELEEIVQPIISKLYGSAGPPPTGEE [2M15, array peptide from BiP1]”: the “Spot intensity, detected using anti-N-terminus VDAC1” value was “++” and the “Spot intensity, detected using anti-VDAC1 internal sequence” value was “+++”.
Take “EQGVLSFWRGNLANVIRYFPTQALN [1F19, array peptide from ANT3]”: the “Spot intensity, detected using anti-N-terminus VDAC1” value is “+++” and the “Spot intensity, detected using anti-VDAC1 internal sequence” value is recorded as “+”.
Consider “ERPLTKDNHLLGTFDLTGIPPAPRG [2L22, array peptide from BiP1]”, for which the “Spot intensity, detected using anti-N-terminus VDAC1” value is on record as “++” and the “Spot intensity, detected using anti-VDAC1 internal sequence” value is on record as “+”.
As to “EVAASAILTAQLDEELGGTPVQSRV [2I10, array peptide from gelsolin isoform b]”, the “Spot intensity, detected using anti-VDAC1 internal sequence” value is reported as “+”.
For the sequence “FDGALNVDLTEFQTNLVPYPRIHFP [2A15, array peptide from tubulin alpha 1b]”, the “Spot intensity, detected using anti-VDAC1 internal sequence” value is “++”.
For “FKDKYKQIFLGGVDKHTQFWRYFAG [1F22, array peptide from ANT3]”, the “Spot intensity, detected using anti-N-terminus VDAC1” value is reported as “+”.
Consider “FPTQALNFAFKDKYKQIFLGGVDKH [1F21, array peptide from ANT3]”, for which the “Spot intensity, detected using anti-N-terminus VDAC1” value is “+++”.
As to “FRDEGGKAFFKGAWSNVLRGMGGAF [1G17, array peptide from ANT3]”, the “Spot intensity, detected using anti-N-terminus VDAC1” value was “+”.
Regarding “FRGLGDCLVKITKSDGIRGLYQGFS [1G5, array peptide from ANT3]”, the “Spot intensity, detected using anti-N-terminus VDAC1” value is listed as “+++”.
For FTEDELPYDDCVFGGQRLTL [2G5], the “Spot intensity, detected using anti-N-terminus VDAC1” value is listed as “+”.
In the case of “FVDWCPTGFKVGINYQPPTVVPGGD [2B2, array peptide from tubulin alpha 1b]”, the “Spot intensity, detected using anti-N-terminus VDAC1” value is recorded as “+”.
For the sequence “GGGPTSSEQIMKTGALLLQGFIQDR [1A21, array peptide from BAX]”, the “Spot intensity, detected using anti-N-terminus VDAC1” value was “+”.
Consider “GGVFTKLINRNTTIPTKKSQVFSTA [2O21, array peptide from HSP-70]”, for which the “Spot intensity, detected using anti-N-terminus VDAC1” value is “+”.
“GKEPAHLMSLFGGKPMIIYKGGTSR [2I13, array peptide from gelsolin isoform b]”: the “Spot intensity, detected using anti-N-terminus VDAC1” value is on record as “+”.
Turning to “GNLANVIRYFPTQALNFAFKDKYKQ [1F20, array peptide from ANT3]”, the “Spot intensity, detected using anti-N-terminus VDAC1” value is “+++” and the “Spot intensity, detected using anti-VDAC1 internal sequence” value is given as “+”.
For the sequence “GRTWNDPSVQQDIKFLPFKVVEKKT [2K5, array peptide from BiP1]”, the “Spot intensity, detected using anti-N-terminus VDAC1” value was “+”.
Regarding “GTATQMRQSSSWTRVFQSWWDRNLG [1A16, array peptide from BAD]”, the “Spot intensity, detected using anti-N-terminus VDAC1” value is given as “++”.
Consider “HSSYPAGTEDDEGMGEEPSPFRGRS [1A9, array peptide from BAD]”, for which the “Spot intensity, detected using anti-N-terminus VDAC1” value is “++”.
Take “HVAENPSIQLLEGNPGPPADPDGGP [1L14, array peptide from MAVS]”: the “Spot intensity, detected using anti-VDAC1 internal sequence” value is listed as “+++”.
Turning to “IEDFKAKKKELEEIVQPIISKLYGS [2M14, array peptide from BiP1]”, the “Spot intensity, detected using anti-N-terminus VDAC1” value is “++” and the “Spot intensity, detected using anti-VDAC1 internal sequence” value is “++”.
Regarding “IEIESFYEGEDFSETLTRAKFEELN [2L4, array peptide from BiP1]”, the “Spot intensity, detected using anti-N-terminus VDAC1” value is recorded as “+” and the “Spot intensity, detected using anti-VDAC1 internal sequence” value is “++”.
Taken in the same sequence, the figures for “IFVGIKKKEERADLIAYLKKATNE [1D15, array peptide from cytochrome c]” were “++” and “+”.
With “IKKKEERADLIAYLKKATNE [1D16, array peptide from cytochrome c]”, the “Spot intensity, detected using anti-N-terminus VDAC1” value is reported as “++” and the “Spot intensity, detected using anti-VDAC1 internal sequence” value is on record as “+”.
With “IMGWTLDFLRERLLGWIQDQGGWGL [1B11, array peptide from BAX]”, the “Spot intensity, detected using anti-N-terminus VDAC1” value is on record as “+++”.
Consider “IMKTGALLLQGFIQDRAGRMGGEAP [1A22, array peptide from BAX]”, for which the “Spot intensity, detected using anti-N-terminus VDAC1” value is listed as “+++”.
Take “ISAMVLTKMKETAEAYLGKKVTHAV [2K10, array peptide from BiP1]”: the “Spot intensity, detected using anti-N-terminus VDAC1” value was “++”.
The same measure, in the same setting: to “ITATQKTVDGPSGKLWRDGRGALQN [2C10, array peptide from GAPDH1]” belongs “+”.
As for “KCELSSSVQTDINLPYLTMDSSGPK [2O6, array peptide from HSP-70]”, the “Spot intensity, detected using anti-N-terminus VDAC1” value was “+”.
The same measure, in the same setting: in the case of “KDFLAGGIAAAISKTAVAPIERVKL [1F13, array peptide from ANT3]” it was “++”.
“KFHGTVKAENGKLVINGNPITIFQE [2B20, array peptide from GAPDH1]”: the “Spot intensity, detected using anti-VDAC1 internal sequence” value is “+++”.
Consider “KGLPRPKSAGTATQMRQSSSWTRVF [1A15, array peptide from BAD]”, for which the “Spot intensity, detected using anti-N-terminus VDAC1” value is “++”.
On to “KIISNASCTTNCLAPLAKVIHDNFG [2C6, array peptide from GAPDH1]”, for which the “Spot intensity, detected using anti-N-terminus VDAC1” value was “+++” and the “Spot intensity, detected using anti-VDAC1 internal sequence” value is “++”.
In the case of “KLQMGKKLPLHLTLPQALPQYAGSG [1N5, array peptide from CD4]”, the “Spot intensity, detected using anti-N-terminus VDAC1” value is reported as “++”.
With “KTGPNLHGLFGRKTGQAPGYSYTAA [1D9, array peptide from cytochrome c]”, the “Spot intensity, detected using anti-N-terminus VDAC1” value is listed as “+”.
Consider “KVQRAVCMLSNTTAIAEAWARLDHK [2B5, array peptide from tubulin alpha 1b]”, for which the “Spot intensity, detected using anti-N-terminus VDAC1” value is given as “+”.
Regarding “LDIERPTYTNLNRLISQIVSSITAS [2A12, array peptide from tubulin alpha 1b]”, the “Spot intensity, detected using anti-VDAC1 internal sequence” value was “++”.
As to “LIGIPPAPRGVPQIEVTFDIDANGI [2P3, array peptide from HSP-70]”, the “Spot intensity, detected using anti-N-terminus VDAC1” value is “+”.
As for “LLGTFDLTGIPPAPRGVPQIEVTFE [2L23, array peptide from BiP1]”, the “Spot intensity, detected using anti-N-terminus VDAC1” value is “+++” and the “Spot intensity, detected using anti-VDAC1 internal sequence” value is “+”.
As for “LVFHSFGGGTGSGFTSLLMERLSVD [2A3, array peptide from tubulin alpha 1b]”, the “Spot intensity, detected using anti-N-terminus VDAC1” value was “+++” and the “Spot intensity, detected using anti-VDAC1 internal sequence” value is recorded as “+”.
Consider MEVIRQVKGDLAFLNFQNNLQQTPL [2F6], for which the “Spot intensity, detected using anti-N-terminus VDAC1” value is “+”.
As for “MGKVKVGVNGFGRIGRLVTRAAFNS [2B14, array peptide from GAPDH1]”, the “Spot intensity, detected using anti-N-terminus VDAC1” value was “+++”.
With “MTEQAISFAKDFLAGGIAAAISKTA [1F12, array peptide from ANT3]”, the “Spot intensity, detected using anti-N-terminus VDAC1” value was “+”.
“MVVEHPEFLKAGKEPGLQIWRVEKF [2G8, array peptide from gelsolin isoform b]”: the “Spot intensity, detected using anti-N-terminus VDAC1” value was “+++”.
